Calls of active or inactive are those of the source. The calls are words filed in the database; no cut-off is given here.
Tests used:
[1] = biological target: T1, Eukaryotic translation initiation factor 2-alpha kinase 3 (Homo sapiens) (UniProt Q9NZJ5); assay: Inhibition of PERK phosphorylation in HEK293T cells at 100 nM pretreated with compound for 12 hrs followed by thapsigargin addition and measured after 24 hrs by immunoblotting analysis; type: cell-based; conditions: time 36.0 hrs
T1 sequence (whole entry): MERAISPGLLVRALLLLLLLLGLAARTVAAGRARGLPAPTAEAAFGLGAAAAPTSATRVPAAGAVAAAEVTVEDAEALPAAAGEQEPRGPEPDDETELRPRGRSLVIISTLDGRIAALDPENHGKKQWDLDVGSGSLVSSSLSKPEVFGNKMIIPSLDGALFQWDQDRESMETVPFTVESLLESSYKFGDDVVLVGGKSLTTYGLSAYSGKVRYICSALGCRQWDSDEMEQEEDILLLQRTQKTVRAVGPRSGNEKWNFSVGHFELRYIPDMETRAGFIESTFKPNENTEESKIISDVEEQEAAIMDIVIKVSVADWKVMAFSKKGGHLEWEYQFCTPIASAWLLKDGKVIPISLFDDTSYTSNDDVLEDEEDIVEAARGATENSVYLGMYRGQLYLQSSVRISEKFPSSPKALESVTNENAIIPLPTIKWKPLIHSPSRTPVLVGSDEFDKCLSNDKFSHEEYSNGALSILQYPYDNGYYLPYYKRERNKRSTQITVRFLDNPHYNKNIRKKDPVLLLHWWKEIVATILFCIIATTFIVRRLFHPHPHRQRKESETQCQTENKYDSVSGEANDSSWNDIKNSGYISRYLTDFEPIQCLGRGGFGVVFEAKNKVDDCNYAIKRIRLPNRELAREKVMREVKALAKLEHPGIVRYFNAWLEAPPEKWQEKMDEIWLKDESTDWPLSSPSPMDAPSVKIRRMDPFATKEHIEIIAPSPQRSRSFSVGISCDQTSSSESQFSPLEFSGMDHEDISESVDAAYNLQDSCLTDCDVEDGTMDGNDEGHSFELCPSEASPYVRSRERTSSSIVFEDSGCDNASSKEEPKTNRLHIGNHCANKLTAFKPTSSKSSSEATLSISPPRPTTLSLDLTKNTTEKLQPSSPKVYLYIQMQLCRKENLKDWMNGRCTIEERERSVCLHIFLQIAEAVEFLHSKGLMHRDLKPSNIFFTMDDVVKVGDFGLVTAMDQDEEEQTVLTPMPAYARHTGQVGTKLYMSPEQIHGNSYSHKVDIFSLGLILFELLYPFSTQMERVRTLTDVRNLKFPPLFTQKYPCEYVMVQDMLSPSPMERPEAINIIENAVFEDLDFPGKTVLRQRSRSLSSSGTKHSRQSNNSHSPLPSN

[2] = biological target: Eukaryotic translation initiation factor 2 subunit 1 (Homo sapiens) (UniProt P05198); assay: Inhibition of eIF2alpha phosphorylation in HEK293T cells at 100 nM pretreated with compound for 12 hrs followed by thapsigargin addition and measured after 24 hrs by immunoblotting analysis; type: cell-based; conditions: time 36.0 hrs
Sequence of Eukaryotic translation initiation factor 2 subunit 1 (Homo sapiens) (P05198 whole entry): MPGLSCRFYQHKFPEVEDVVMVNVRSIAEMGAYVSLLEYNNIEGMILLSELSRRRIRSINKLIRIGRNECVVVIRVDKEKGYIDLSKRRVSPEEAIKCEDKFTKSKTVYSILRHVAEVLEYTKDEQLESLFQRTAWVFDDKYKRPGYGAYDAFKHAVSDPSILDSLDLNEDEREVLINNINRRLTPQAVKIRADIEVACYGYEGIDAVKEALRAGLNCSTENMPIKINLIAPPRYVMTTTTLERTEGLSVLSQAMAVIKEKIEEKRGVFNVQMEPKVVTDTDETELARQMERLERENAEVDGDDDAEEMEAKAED

HEK293T = assay: Inhibition of IRE1alpha phosphorylation in HEK293T cells at 100 nM pretreated with compound for 12 hrs followed by thapsigargin addition and measured after 24 hrs by immunoblotting analysis; type: cell-based; conditions: Homo sapiens, time 36.0 hrs
HepG2 = assay: Cytotoxicity against human HepG2 cells assessed as cell viability at 1 uM incubated for 24 hrs by MTT assay; conditions: HepG2, 24 h, read-out: Activity
[3] = biological target: T2, Bifunctional epoxide hydrolase 2 (Mus musculus, UniProt P34914); assay: Inhibition of mouse recombinant sEH using fluorogenic substrate
T2 sequence (P34914 whole entry): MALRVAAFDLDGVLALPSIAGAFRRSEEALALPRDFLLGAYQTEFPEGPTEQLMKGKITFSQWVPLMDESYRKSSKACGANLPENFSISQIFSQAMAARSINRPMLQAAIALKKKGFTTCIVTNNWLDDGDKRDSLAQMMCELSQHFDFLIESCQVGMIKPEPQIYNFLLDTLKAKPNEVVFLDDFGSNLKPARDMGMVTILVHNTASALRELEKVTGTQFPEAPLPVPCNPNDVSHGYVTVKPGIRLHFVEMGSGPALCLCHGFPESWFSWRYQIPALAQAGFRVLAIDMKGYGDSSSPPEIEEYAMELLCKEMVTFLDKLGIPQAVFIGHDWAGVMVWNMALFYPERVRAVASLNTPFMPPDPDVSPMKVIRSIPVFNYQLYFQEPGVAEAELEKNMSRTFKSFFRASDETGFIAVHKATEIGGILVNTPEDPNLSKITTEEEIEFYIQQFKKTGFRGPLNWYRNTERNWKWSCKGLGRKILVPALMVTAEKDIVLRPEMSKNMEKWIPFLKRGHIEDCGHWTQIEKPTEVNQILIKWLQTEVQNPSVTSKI

[4] = AUC (0 to infinity) in male CD-1 mouse at 10 mg/kg, ip measured up to 24 hrs by LC-MS/MS analysis; type: ADME, organism-based; conditions: in vivo
[5] = Cmax in male CD-1 mouse at 10 mg/kg, ip measured up to 24 hrs by LC-MS/MS analysis; type: ADME, organism-based; conditions: in vivo
[6] = MRT (0 to infinity) in male CD-1 mouse at 10 mg/kg, ip measured up to 24 hrs by LC-MS/MS analysis; type: ADME, organism-based; conditions: in vivo
[7] = Tmax in male CD-1 mouse at 10 mg/kg, ip measured up to 24 hrs by LC-MS/MS analysis; type: ADME, organism-based; conditions: in vivo
[8] = Half life in male CD-1 mouse at 10 mg/kg, ip measured up to 24 hrs by LC-MS/MS analysis; type: ADME, organism-based; conditions: in vivo
[9] = Metabolic stability in mouse liver microsome assessed as intrinsic clearance incubated for 5 to 45 mins in presence of NADPH by UPLC-MS/MS analysis; type: ADME; conditions: liver microsomes, time 5-45 min, read-out: CLH
[10] = Chemical stability of compound in cell culture medium assessed as half life measured for 24 hrs by LC-MS analysis; type: physicochemical
[11] = Metabolic stability in mouse liver microsome assessed as parent compound remaining incubated for 5 to 45 mins in absence of NADPH by UPLC-MS/MS analysis; type: ADME; conditions: microsomes, time 5-45 min
[12] = Chemical stability of compound in cell culture medium assessed as degradation measured after 24 hrs by LC-MS analysis; type: physicochemical; conditions: read-out: Drug degradation
[13] = Metabolic stability in mouse liver microsome assessed as half life incubated for 5 to 45 mins in presence of NADPH by UPLC-MS/MS analysis; type: ADME; conditions: liver microsomes, time 5-45 min
[14] = biological target: Protein cereblon/Bifunctional epoxide hydrolase 2 (Homo sapiens, UniProt P34913+Q96SW2); assay: PROTAC activity at sEH/CRBN in human HepG2 cells assessed as induction of sEH degradation measured for 24 hrs by immunoblot analysis; type: cell-based
Sequence of Protein cereblon/Bifunctional epoxide hydrolase 2 (P34913 whole entry): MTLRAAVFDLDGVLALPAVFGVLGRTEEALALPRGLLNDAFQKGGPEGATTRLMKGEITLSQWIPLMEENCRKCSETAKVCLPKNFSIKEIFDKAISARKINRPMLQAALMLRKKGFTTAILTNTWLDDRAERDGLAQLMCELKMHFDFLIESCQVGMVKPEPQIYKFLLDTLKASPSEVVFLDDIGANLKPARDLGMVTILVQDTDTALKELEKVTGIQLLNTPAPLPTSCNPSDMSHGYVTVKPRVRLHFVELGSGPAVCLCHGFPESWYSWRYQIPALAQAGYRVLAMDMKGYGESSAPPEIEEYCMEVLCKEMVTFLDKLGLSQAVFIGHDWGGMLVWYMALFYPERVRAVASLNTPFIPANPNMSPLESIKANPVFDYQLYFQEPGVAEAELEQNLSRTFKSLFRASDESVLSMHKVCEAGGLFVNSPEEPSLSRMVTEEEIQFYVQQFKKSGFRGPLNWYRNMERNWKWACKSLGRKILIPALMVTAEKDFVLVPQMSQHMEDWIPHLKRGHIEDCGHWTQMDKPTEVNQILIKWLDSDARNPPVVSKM
Sequence of Protein cereblon/Bifunctional epoxide hydrolase 2 (Q96SW2 whole entry): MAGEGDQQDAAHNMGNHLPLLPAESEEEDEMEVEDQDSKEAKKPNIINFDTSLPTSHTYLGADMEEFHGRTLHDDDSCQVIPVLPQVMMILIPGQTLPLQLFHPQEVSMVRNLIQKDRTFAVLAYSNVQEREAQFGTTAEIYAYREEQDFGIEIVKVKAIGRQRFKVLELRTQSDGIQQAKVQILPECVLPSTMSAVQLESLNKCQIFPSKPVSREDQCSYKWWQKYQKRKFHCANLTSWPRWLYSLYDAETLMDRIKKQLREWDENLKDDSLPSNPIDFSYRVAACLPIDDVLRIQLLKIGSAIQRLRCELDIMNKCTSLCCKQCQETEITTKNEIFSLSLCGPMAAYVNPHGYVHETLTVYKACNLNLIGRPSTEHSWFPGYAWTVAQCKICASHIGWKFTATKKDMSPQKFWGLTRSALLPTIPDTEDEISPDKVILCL

SMILES: O=C(Nc1ccc(OC(F)(F)F)cc1)N[C@H]1CC[C@H](Oc2ccc(C(=O)O)cc2)CC1
- inhibition [1]: inactive
- inhibition [2]: inactive
- inhibition (HEK293T): inactive

SMILES: O=C1CCC(N2C(=O)c3cccc(N4CCN(CC5CCN(C(=O)CCCCCCCCNC(=O)c6ccc(O[C@H]7CC[C@H](NC(=O)Nc8ccc(OC(F)(F)F)cc8)CC7)cc6)CC5)CC4)c3C2=O)C(=O)N1 (some centres undefined)
- viability at 1 µM (HepG2): 24%
- IC50 [3]: 1.8 nM

SMILES: O=C1CCC(N2Cc3ccc(N4CCN(CC5CCN(C(=O)CCCCCCCCNC(=O)c6ccc(O[C@H]7CC[C@H](NC(=O)Nc8ccc(OC(F)(F)F)cc8)CC7)cc6)CC5)CC4)cc3C2=O)C(=O)N1 (some centres undefined)
- AUC(0-inf) [4]: 31000 ng·h/mL
- Cmax [5]: 3500 ng/mL
- MRT inf [6]: 9.3 h
- viability at 1 µM (HepG2): 7%
- Tmax [7]: 0.33 h
- IC50 [3]: 4.8 nM
- half-life [8]: 7.1 h

SMILES: O=C(COc1cccc2c1C(=O)N(C1CCC(=O)NC1=O)C2=O)NCCOCCOCCOCCOCCNC(=O)c1ccc(O[C@H]2CC[C@H](NC(=O)Nc3ccc(OC(F)(F)F)cc3)CC2)cc1 (some centres undefined)
- inhibition [1]: inactive
- CLint scaled [9]: 552 L/h/kg
- half-life [10]: 1.1 h
- Stability [11]: 90%
- degraded at 24 h [12]: ~100%
- inhibition [2]: inactive
- inhibition (HEK293T): inactive
- half-life [13]: 35.4 s

SMILES: O=C1CCC(N2C(=O)c3cccc(NCCOCCOCCOCCOCCC(=O)N4CCC(NC(=O)Nc5ccc(OC(F)(F)F)cc5)CC4)c3C2=O)C(=O)N1 (centres undefined)
- IC50 [3]: 4.6 nM

SMILES: O=C1CCC(N2C(=O)c3cc(F)c(N4CCN(CC5CCN(C(=O)CCCCCCCCNC(=O)c6ccc(O[C@H]7CC[C@H](NC(=O)Nc8ccc(OC(F)(F)F)cc8)CC7)cc6)CC5)CC4)cc3C2=O)C(=O)N1 (some centres undefined)
- IC50 [3]: 20 nM

SMILES: O=C(COc1cccc2c1C(=O)N(C1CCC(=O)NC1=O)C2=O)NCCOCCOCCOCCCNC(=O)c1ccc(O[C@H]2CC[C@H](NC(=O)Nc3ccc(OC(F)(F)F)cc3)CC2)cc1 (some centres undefined)
- degraded at 24 h [12]: ~100%
- DC50 [14]: > 1000 nM

Source: ChEMBL document CHEMBL6071207, “In Vivo-Active Soluble Epoxide Hydrolase-Targeting PROTACs with Improved Potency and Stability” (ACS Med Chem Lett, 2024)
